Test results taken from patent US20060111305A1, “Metabolites of certain [1,4]diazepino[6,7,1-ij]quinoline derivatives and methods of preparation and use thereof” (Wyeth, priority 2004, published 2006).

Assay: Incubation of [14C]DCDQ in rat fecal homogenate (stability)
Assay type: in vitro ADME
Details: 37° C. for 24 hours
Description: Fecal elimination accounted for 21.1±2.1% of the dosed radioactivity recovered in the first 24 hours post-dosing for male rats. Extraction efficiency for the 8-24 hour fecal samples was 64.3%, while an average of 89.5% of the radioactivity was extracted from incubations of [^14C]DCDQ in control fecal homogenate. […] Metabolite profiles were not obtained from the 0-8 hour fecal samples because of low radioactivity (less than 0.1% of dosed radioactivity).

## c1cc2c3c(c1)[C@H]1CCC[C@H]1CN3CCNC2 [[^14C]DCDQ]
  degradation in fecal homogenate: no detectable degradation
